Legend:
[1] = Metabolic (microsomal) stability assay, human liver microsomes (HLM); assay type: in vitro ADME; conditions: 1 μM test compound, predicted clearance as percent of liver blood flow
[2] = tested on: LOVO cells; assay: LOVO CTG proliferation assay (120 h) (CRC, G13D); assay type: cell-based; conditions: Homo sapiens
How it was run: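 Cells seeded at 1000/well in DMEM + 10% FCS, dosed next day with a logarithmic compound series, technical duplicates, for 120 h. Viability by CellTiter-Glo luminescence as percent of DMSO control; IC50 from four-parameter non-linear regression.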

[3] = tested on: Ba/F3 cells KRAS G12V; assay: Ba/F3 proliferation assay (KRAS G12V); assay type: cell-based; conditions: Mus musculus, BaF3, 72 h, AlamarBlue viability
How it was run: (§1)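 Ba/F3 cells retrovirally transduced with KRAS G12 mutant, puromycin-selected, grown IL-3-independent; seeded in RPMI-1640 + 10% FCS without IL-3. Logarithmic compound dose series in duplicate, 72 h at 37° C., AlamarBlue fluorescence as % of DMSO control; IC50 from four-parameter non-linear regression.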

[4] = tested on: Ba/F3 cells KRAS G12C; assay: Ba/F3 proliferation assay (KRAS G12C); assay type: cell-based; conditions: Mus musculus, BaF3, 72 h, AlamarBlue viability
How it was run: as §1

[5] = tested on: MKN1 cells; assay: MKN1 CTG proliferation assay (120 h) (gastric cancer, wt amplified); assay type: cell-based; conditions: Homo sapiens, MKN-1
How it was run: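 Cells were seeded at 200 per well in RPMI-1640 with 10% FCS, grown overnight, then exposed to logarithmic compound dilutions in duplicate for 120 h. Viability was read by CellTiter-Glo luminescence as percent of DMSO controls, with untreated T0 cells measured at dosing. IC50 came from four-parameter non-linear regression.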

[6] = tested on: Ba/F3 cells KRAS G12D; assay: Ba/F3 proliferation assay (KRAS G12D); assay type: cell-based; conditions: Mus musculus, BaF3, 72 h, AlamarBlue viability
How it was run: as §1

| HLM QH [1] [%] | IC50 [2] [nM] | IC50 [3] [nM] | IC50 [4] [nM] | IC50 [5] [nM] | IC50 [6] [nM] | Structure (SMILES) |
| --- | --- | --- | --- | --- | --- | --- |
| 52 | 11 | 1 | 2 | 12 | 11 | CO[C@@H]1C[C@@H]([C@H](C)Oc2nc(-c3noc4c3CCC[C@@]43CCCc4sc(N)c(C#N)c43)nc3c2n(C)c(=O)n3[C@@]23COC[C@@H]2C3)N(C)C1 [II-6] |
| <24 | 11 | 10 | 10 | 41 | 28 | C[C@H](Oc1nc(-c2noc3c2CCC[C@@]32CCCc3sc(N)c(C#N)c32)nc2c1CN(c1ncccn1)[C@]21CCOC1)[C@@H]1CCCN1C [II-7a] |
| <24 | 130 | 37 | 61 | 635 | 127 | C[C@H](Oc1nc(-c2noc3c2CCC[C@@]32CCCc3sc(N)c(C#N)c32)nc2c1CN(c1ncccn1)[C@@]21CCOC1)[C@@H]1CCCN1C [II-7b] |
| 46 | 2 | 1 | 2 | 3 | 4 | C[C@H](Oc1nc(-c2noc3c2CCC[C@@]32CCCc3sc(N)c(C#N)c32)nc2c1COC[C@]21CCOC1)[C@@H]1CCCN1C [II-8] |
| 29 | 274 | 28 | 84 | 209 | 59 | C[C@H](Oc1nc(-c2noc3c2CCC[C@@]32CCCc3sc(N)c(C#N)c32)nc2c1COC[C@@]21CCOC1)[C@@H]1CCCN1C [II-9a] |
| 33 | 12 | 2 | 5 | 19 | 8 | C[C@H](Oc1nc(-c2noc3c2CCC[C@@]32CCCc3sc(N)c(C#N)c32)nc2c1CCO[C@]21CCOC1)[C@@H]1CCCN1C [II-9b] |
| 47 | 11 | 6 | 7 | 10 | 22 | C[C@H](Oc1nc(-c2noc3c2CCC[C@@]32CCCc3sc(N)c(C#N)c32)nc2c1CCCO[C@]21CCOC1)[C@@H]1CCCN1C [II-10] |
| 64 | 6 | 1 | 1 | 6 | 4 | CO[C@@H]1C[C@@H]([C@H](C)Oc2nc(-c3noc4c3CCC[C@@]43CCCc4sc(N)c(C#N)c43)nc3c2COC[C@]32CCOC2)N(C)C1 [II-11] |
| 26 | 71 | 1 | 2 | 10 | 8 | C[C@H](Oc1nc(-c2noc3c2CCC[C@@]32CCCc3sc(N)c(C#N)c32)nc2c1CN(C1COC1)C[C@]21CCOC1)[C@@H]1CCCN1C [II-12] |
| 66 | 8 | 1 | 2 | 5 | 7 | CO[C@H]1CCN(C)[C@@H]1[C@H](C)Oc1nc(-c2noc3c2CCC[C@@]32CCCc3sc(N)c(C#N)c32)nc2c1CN(C1COC1)C[C@]21CCOC1 [II-13] |
| 59 | 18 | 2 | 3 | 19 | 11 | CO[C@@H]1C[C@@H]([C@H](C)Oc2nc(-c3noc4c3CCC[C@@]43CCCc4sc(N)c(C#N)c43)nc3c2CN(C2COC2)C[C@]32CCOC2)N(C)C1 [II-14] |
| 63 | 17 | 2 | 1 | 3 | 8 | C[C@H](Oc1nc(-c2noc3c2CCC[C@@]32CCCc3sc(N)c(C#N)c32)nc2c1CNC[C@]21CCOC1)[C@@H]1CCCN1C [II-15] |
| 64 | 7 | 1 | 1 | 4 | 3 | C[C@H](Oc1nc(-c2noc3c2CCC[C@@]32SCCc3sc(N)c(C#N)c32)nc2c1COC[C@]21CCOC1)[C@@H]1CCCN1C [II-16] |

From patent US20250019385A1, “SPIROCYCLIC ANNULATED 2-AMINO-3-CYANO THIOPHENES AND DERIVATIVES FOR THE TREATMENT OF CANCER” (Boehringer Ingelheim International GmbH, priority 2023, published 2025)
